Experiment [1] deals with Serine/threonine-protein kinase Nek7 (Homo sapiens) (UniProt Q8TDX7). The experiment in a line: Selectivity interaction (Upstate Kinase Profiler service (Millipore)) EUB0000056c NEK7. To be noted: at 1 µM.
The target of experiment [2] is Aurora kinase B (Homo sapiens, UniProt Q96GD4). The experiment in a line: Selectivity interaction (Kinase panel (DSF assay)) EUB0001558a AURKB. (DSF heats the sample and reads unfolding from a dye or from intrinsic fluorescence.)
Experiment [3] has as its target Dual specificity mitogen-activated protein kinase kinase 2 (Homo sapiens) (UniProt P36507). The experiment in a line: Selectivity interaction (Ambit KINOMEscan and KiNATiv profiling in Jurkat cells) EUB0000090b MAP2K2. In kind it is cell-based. To be noted: at 1 µM.
Experiment [4] has as its target T1, Serine/threonine-protein kinase Nek2 (Homo sapiens) (UniProt P51955).
T1 sequence (whole entry): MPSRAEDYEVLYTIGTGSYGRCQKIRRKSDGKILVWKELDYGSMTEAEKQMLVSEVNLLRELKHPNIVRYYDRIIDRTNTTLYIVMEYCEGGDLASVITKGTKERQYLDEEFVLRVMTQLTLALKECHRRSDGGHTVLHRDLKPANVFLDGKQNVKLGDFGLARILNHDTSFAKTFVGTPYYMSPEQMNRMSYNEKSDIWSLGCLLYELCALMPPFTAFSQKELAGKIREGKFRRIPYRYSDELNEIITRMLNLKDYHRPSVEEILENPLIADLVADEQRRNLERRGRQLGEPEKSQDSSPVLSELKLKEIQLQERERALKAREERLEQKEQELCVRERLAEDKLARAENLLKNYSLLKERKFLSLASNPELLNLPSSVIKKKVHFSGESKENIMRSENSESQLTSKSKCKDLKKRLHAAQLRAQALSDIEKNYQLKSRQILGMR
The experiment in a line: Selectivity interaction (KinomeScan (DiscoverX)) EUB0001079a NEK2. To be noted: at 1 µM.

The target in experiment [5] is Non-receptor tyrosine-protein kinase TYK2 (Homo sapiens, UniProt P29597). The experiment in a line: Selectivity interaction (KinomeScan (DiscoverX)) EUB0001049a TYK2. To be noted: at 1 µM.
Non-receptor tyrosine-protein kinase TYK2, sequence (P29597 whole entry): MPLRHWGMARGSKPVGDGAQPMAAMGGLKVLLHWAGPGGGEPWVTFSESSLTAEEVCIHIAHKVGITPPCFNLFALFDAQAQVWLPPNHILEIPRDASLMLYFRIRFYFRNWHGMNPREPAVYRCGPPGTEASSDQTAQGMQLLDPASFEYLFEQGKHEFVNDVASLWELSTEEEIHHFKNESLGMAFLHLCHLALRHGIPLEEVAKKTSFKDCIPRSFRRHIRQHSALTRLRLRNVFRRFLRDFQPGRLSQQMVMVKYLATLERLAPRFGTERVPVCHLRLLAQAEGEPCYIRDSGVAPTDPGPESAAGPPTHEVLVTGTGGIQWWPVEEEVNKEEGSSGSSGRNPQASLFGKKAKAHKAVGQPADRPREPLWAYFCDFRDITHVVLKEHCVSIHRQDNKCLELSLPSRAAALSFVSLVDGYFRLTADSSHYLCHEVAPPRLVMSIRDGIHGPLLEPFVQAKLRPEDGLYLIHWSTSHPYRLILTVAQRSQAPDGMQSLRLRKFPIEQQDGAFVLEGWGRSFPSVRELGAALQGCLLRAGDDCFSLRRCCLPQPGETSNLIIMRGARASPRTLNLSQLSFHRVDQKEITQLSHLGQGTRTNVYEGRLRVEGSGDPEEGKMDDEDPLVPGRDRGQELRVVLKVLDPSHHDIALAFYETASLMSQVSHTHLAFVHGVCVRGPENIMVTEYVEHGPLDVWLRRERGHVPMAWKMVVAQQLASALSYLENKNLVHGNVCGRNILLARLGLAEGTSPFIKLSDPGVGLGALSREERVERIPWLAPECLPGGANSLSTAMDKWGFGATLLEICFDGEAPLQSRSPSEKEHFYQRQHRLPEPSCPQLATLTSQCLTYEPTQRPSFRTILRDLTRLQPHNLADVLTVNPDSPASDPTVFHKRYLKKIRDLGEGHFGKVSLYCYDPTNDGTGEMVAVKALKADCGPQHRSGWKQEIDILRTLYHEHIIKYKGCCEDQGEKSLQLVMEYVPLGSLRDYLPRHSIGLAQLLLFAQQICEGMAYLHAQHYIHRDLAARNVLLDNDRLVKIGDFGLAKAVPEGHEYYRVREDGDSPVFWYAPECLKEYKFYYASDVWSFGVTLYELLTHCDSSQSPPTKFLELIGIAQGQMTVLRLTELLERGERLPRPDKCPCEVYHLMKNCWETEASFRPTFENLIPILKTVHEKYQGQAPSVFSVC
In experiment [6] the target is T2, Dual specificity mitogen-activated protein kinase kinase 3 (Homo sapiens) (UniProt P46734).
T2 sequence (whole entry): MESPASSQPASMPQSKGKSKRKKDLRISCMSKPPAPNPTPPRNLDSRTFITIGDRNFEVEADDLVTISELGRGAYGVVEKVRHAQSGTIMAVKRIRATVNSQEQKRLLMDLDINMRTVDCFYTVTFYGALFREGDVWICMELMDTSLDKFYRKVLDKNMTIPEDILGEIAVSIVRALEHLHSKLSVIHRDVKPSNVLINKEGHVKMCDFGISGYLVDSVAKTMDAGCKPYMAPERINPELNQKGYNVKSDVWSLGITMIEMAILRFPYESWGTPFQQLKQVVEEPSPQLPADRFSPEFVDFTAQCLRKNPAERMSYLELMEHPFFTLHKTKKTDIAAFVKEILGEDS
Briefly: Selectivity interaction (ActivX KiNativ screen (kinase selectivity in THP-1 cell lysates)) EUB0000639a MAP2K3. In kind it is subcellular. To be noted: lysate, at 1 µM.

The target of experiment [7] is 5'-AMP-activated protein kinase catalytic subunit alpha-1 (Homo sapiens, UniProt Q13131). Briefly: Selectivity interaction (ActivX KiNativ screen (kinase selectivity in THP-1 cell lysates)) EUB0000639a PRKAA1. In kind it is subcellular. The note with it: lysate, at 0.2 µM.
5'-AMP-activated protein kinase catalytic subunit alpha-1, sequence (Q13131 whole entry, looked up): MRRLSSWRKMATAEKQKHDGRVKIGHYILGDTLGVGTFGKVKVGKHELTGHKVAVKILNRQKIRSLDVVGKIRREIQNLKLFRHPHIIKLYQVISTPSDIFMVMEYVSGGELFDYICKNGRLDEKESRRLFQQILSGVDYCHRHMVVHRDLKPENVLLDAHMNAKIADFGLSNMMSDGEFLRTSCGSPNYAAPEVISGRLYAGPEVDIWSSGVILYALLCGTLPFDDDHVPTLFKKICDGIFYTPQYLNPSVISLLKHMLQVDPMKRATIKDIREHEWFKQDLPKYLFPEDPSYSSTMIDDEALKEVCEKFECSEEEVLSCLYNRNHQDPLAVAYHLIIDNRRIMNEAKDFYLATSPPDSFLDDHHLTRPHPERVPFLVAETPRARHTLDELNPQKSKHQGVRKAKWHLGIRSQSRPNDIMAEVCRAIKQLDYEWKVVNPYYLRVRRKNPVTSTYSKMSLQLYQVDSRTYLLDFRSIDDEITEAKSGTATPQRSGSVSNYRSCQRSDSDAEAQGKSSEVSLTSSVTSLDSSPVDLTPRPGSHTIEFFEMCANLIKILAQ
Experiment [8] has as its target T3, Serine/threonine-protein kinase D2 (Homo sapiens) (UniProt Q9BZL6).
T3 sequence (whole entry): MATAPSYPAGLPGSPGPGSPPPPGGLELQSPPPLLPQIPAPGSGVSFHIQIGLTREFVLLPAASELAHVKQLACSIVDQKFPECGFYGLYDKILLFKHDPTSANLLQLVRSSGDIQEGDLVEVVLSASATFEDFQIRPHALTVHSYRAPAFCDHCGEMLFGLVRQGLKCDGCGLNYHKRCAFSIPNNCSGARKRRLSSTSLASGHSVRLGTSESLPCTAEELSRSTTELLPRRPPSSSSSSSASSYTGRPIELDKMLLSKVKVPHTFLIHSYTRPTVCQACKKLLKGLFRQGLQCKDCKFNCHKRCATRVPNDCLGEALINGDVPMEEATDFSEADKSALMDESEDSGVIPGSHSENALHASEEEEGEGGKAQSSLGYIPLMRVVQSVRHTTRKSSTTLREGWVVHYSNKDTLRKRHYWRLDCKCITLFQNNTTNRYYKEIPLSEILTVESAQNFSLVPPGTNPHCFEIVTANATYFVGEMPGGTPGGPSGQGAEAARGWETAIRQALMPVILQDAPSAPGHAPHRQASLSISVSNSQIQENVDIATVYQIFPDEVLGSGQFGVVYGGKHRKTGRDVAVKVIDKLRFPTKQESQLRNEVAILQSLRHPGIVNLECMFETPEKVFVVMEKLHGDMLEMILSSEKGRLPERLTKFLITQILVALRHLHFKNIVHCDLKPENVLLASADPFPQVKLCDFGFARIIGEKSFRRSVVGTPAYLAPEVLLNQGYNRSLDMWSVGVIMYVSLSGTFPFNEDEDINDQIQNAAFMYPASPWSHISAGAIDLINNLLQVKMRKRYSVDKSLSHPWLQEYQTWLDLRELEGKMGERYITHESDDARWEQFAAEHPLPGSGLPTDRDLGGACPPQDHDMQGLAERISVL
The experiment in a line: Selectivity interaction (ActivX KiNativ screen (kinase selectivity in THP-1 cell lysates)) EUB0000639a PRKD2. It is filed as subcellular. The note with it: lysate, at 1 µM.

For experiment [9], the target named is Ribosomal protein S6 kinase alpha-4 (Homo sapiens) (UniProt O75676). Briefly: Selectivity interaction (KinomeScan (DiscoverX)) EUB0000229b RPS6KA4. The note with it: at 10 µM.
Ribosomal protein S6 kinase alpha-4 (Homo sapiens), sequence (O75676 whole entry, looked up): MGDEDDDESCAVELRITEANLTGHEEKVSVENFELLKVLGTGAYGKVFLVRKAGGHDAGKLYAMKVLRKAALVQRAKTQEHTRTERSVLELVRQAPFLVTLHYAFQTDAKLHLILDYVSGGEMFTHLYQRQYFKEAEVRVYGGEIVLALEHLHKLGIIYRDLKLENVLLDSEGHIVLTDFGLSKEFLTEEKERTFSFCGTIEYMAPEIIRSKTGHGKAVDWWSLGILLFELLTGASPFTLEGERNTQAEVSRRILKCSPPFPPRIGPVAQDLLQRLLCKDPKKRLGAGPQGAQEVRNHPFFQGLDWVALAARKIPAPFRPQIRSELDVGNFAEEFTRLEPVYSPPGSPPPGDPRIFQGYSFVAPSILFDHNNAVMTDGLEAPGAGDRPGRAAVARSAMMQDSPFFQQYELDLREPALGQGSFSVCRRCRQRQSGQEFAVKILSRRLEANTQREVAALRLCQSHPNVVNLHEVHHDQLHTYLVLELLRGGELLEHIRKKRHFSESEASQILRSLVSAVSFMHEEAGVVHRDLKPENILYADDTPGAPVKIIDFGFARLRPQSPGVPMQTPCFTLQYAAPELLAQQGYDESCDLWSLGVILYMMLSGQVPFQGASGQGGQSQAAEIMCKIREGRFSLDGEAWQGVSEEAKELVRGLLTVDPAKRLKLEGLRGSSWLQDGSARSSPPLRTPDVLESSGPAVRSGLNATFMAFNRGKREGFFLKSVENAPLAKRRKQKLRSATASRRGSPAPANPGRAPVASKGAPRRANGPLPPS

Dual specificity mitogen-activated protein kinase kinase 2 (Homo sapiens), sequence (P36507 whole entry): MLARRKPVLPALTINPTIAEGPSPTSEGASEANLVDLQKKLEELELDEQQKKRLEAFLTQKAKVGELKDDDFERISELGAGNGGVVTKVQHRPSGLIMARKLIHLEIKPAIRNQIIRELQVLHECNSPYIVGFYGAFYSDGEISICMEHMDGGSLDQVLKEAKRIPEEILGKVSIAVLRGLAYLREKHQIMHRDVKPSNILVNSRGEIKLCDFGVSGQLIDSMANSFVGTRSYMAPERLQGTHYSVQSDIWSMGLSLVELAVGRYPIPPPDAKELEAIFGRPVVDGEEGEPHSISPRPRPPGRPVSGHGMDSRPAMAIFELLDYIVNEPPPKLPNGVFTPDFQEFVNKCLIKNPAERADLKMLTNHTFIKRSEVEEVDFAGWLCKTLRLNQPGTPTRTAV
Aurora kinase B, sequence (Q96GD4 whole entry): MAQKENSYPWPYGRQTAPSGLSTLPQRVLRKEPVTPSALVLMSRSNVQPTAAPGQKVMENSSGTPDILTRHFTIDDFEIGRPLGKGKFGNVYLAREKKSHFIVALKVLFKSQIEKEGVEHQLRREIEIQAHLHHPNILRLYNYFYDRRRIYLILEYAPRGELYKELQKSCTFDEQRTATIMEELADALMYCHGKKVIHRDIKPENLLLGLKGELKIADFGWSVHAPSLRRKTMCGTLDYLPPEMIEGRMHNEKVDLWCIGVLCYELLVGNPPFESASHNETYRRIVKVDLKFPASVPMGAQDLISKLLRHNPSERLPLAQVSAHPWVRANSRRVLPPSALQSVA
Serine/threonine-protein kinase Nek7 (Homo sapiens), sequence (Q8TDX7 whole entry, looked up): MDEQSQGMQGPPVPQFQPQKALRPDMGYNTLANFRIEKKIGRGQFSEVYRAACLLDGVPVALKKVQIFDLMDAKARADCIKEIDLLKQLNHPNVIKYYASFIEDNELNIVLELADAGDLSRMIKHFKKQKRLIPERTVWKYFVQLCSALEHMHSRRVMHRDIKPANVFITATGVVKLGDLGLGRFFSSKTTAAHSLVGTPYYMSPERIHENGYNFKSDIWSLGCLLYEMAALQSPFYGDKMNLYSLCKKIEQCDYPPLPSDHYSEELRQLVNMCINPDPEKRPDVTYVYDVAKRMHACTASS

As to `Cc1ccc(-c2ccc3c(ccc4sc5c(c43)NC[C@@H](C)NC5=O)n2)cn1`, the % of inhibition in [1] was -3%.

In experiment [2], `CC(C)(O)[C@H](F)CN1Cc2cc(NC(=O)c3cnn4cccnc34)c(N3CCOCC3)cc2C1=O` showed a dTM of 0.5 K.

Turning to `CN(C)C/C=C/C(=O)Nc1ccc(C(=O)N2CCCC(Nc3ncc(Cl)c(-c4c[nH]c5ccccc45)n3)C2)cc1` (centres undefined), the % of control in experiment [3] was 93%.

For the compound `Nc1cnc(N2CCc3cc(S(=O)(=O)Nc4c(F)cc(Cl)cc4F)cc(N4CCCC4=O)c32)nc1` [TP-020n], in [4], the % of control was 89%.

`COc1cc(Nc2nc(C)cc(-c3cnn4nc(OC)ccc34)n2)cc(C(F)(F)F)c1` registered a % of control in experiment [5] of 90%.

With `CC[C@@H]1[C@H](F)C(=O)N[C@@H]1COc1nccc2cc(C(N)=O)c(OC)cc12` [ZIMLOVISERTIB], the results for the % of inhibition in experiment [6], in experiment [7] and in experiment [8] were -152%, 8.7% and 8%, respectively.

Consider `COc1cc(N(C)c2ccnc3ccc(C(F)(F)F)cc23)cc(OC)c1OC`, for which the % binding in [9] stood at 75%.

Source of the values: ChEMBL document CHEMBL5465560, “Selectivity Literature for EUbOPEN Chemogenomic Library” (2024).
